Mortality data for 20 compounds are collected here from ChEMBL document CHEMBL3044590, “Nematicidal activity of plant essential oils and components from coriander (Coriandrum sativum), Oriental sweetgum (Liquidambar orientalis), and valerian (Valeriana wallichii) essential oils against pine wood nematode (Bursaphelenchus xylophilus)” (2008).

Common to all, as to type: functional
The test system of assay [1] is Bursaphelenchus xylophilus. Kind of assay: Nematicidal activity against Bursaphelenchus xylophilus assessed as nematode mortality at 0.2 mg/mL measured 24 hr post dose by microscopy.
In assay [2] the test system is Bursaphelenchus xylophilus. Put plainly: Nematicidal activity against Bursaphelenchus xylophilus assessed as nematode mortality at 0.6 mg/mL measured 24 hr post dose by microscopy.
The test system of assay [3] is Bursaphelenchus xylophilus. Kind of assay: Nematicidal activity against Bursaphelenchus xylophilus assessed as nematode mortality at 0.4 mg/mL measured 24 hr post dose by microscopy.
Assay [4] deals with Bursaphelenchus xylophilus. Put plainly: Nematicidal activity against Bursaphelenchus xylophilus assessed as nematode mortality at 0.8 mg/mL measured 24 hr post dose by microscopy.
Assay [5] relates to Bursaphelenchus xylophilus. Put plainly: Nematicidal activity against Bursaphelenchus xylophilus assessed as nematode mortality at 1 mg/mL measured 24 hr post dose by microscopy.
Assay [6] concerns Bursaphelenchus xylophilus. Kind of assay: Nematicidal activity against Bursaphelenchus xylophilus assessed as nematode mortality at 2 mg/mL measured 24 hr post dose by microscopy.

For `CCCCCCC/C=C/CO`, the mortality (usually the percentage killed) at 200 µg/mL in assay [1] was found to be 98%. The mortality at 600 µg/mL in assay [2] came to 100%. Besides, the mortality at 400 µg/mL in assay [3] worked out at 100%. Besides, the mortality at 800 µg/mL in assay [4] was found to be 100%. Moreover, the mortality at 1000 µg/mL in assay [5] turned out to be 100%. Besides, the mortality at 2000 µg/mL in assay [6] was determined as 100%.
For the compound `CC(=O)c1ccccc1` [ACETOPHENONE], the mortality at 2000 µg/mL in assay [6] came out at 5.3%.
For the compound `O=Cc1ccccc1` [BENZALDEHYDE], in assay [1], the mortality at 200 µg/mL amounted to 1.9%. Further, the mortality at 600 µg/mL in assay [2] was determined as 45.6%. Also, in assay [3], the mortality at 400 µg/mL is 7.4%. In assay [4], the mortality at 800 µg/mL is 77.5%. Besides, the mortality at 1000 µg/mL in assay [5] is 94.1%. Besides, the mortality at 2000 µg/mL in assay [6] was determined as 100%.
For `OCc1ccccc1` [BENZYL ALCOHOL], in assay [6], the mortality at 2000 µg/mL was 3.8%.
Take `OC/C=C/c1ccccc1` [CINNAMIC ALCOHOL]: the mortality at 200 µg/mL in assay [1] stood at 11.3%. Besides, in assay [2], the mortality at 600 µg/mL stood at 99.5%. Moreover, the mortality at 400 µg/mL in assay [3] worked out at 57.6%. Moreover, in assay [4], the mortality at 800 µg/mL amounted to 100%. In addition, the mortality at 1000 µg/mL in assay [5] is 100%. Besides, the mortality at 2000 µg/mL in assay [6] is 100%.
As for `C/C=C\c1cc(OC)c(OC)cc1OC` [CIS-ASARONE], the mortality at 200 µg/mL in assay [1] came to 15.8%. Also, the mortality at 600 µg/mL in assay [2] is 96.2%. Besides, in assay [3], the mortality at 400 µg/mL is 47.9%. Besides, the mortality at 800 µg/mL in assay [4] stood at 100%. In addition, the mortality at 1000 µg/mL in assay [5] was 100%. Further, the mortality at 2000 µg/mL in assay [6] stood at 100%.
With `CCCCCCCCCC=O` [DECANAL], the mortality at 200 µg/mL in assay [1] came out at 3%. Further, in assay [2], the mortality at 600 µg/mL worked out at 34.2%. For the same compound, the mortality at 400 µg/mL in assay [3] came out at 25.1%. In assay [4], the mortality at 800 µg/mL stood at 97.3%. Besides, the mortality at 1000 µg/mL in assay [5] worked out at 100%. The mortality at 2000 µg/mL in assay [6] was determined as 100%.
As for `CCCCCCCCCCO` [DECANOL], the mortality at 200 µg/mL in assay [1] came out at 100%. Besides, the mortality at 600 µg/mL in assay [2] was 100%. Also, the mortality at 400 µg/mL in assay [3] stood at 100%. Moreover, the mortality at 800 µg/mL in assay [4] stood at 100%. In addition, the mortality at 1000 µg/mL in assay [5] stood at 100%. Further, the mortality at 2000 µg/mL in assay [6] was 100%.
In the case of `CCCCCCCCCCCC=O` [DODECANAL], the mortality at 200 µg/mL in assay [1] amounted to 11.5%. Moreover, in assay [2], the mortality at 600 µg/mL stood at 37.6%. Further, the mortality at 400 µg/mL in assay [3] was 20.8%. For the same compound, the mortality at 800 µg/mL in assay [4] is 77.8%. In assay [5], the mortality at 1000 µg/mL was determined as 86.3%. The mortality at 2000 µg/mL in assay [6] came out at 100%.
`CC(=O)OC/C=C(\C)CCC=C(C)C` [GERANYL ACETATE]: the mortality at 2000 µg/mL in assay [6] was 7%.
For the compound `CCCCCCC=O` [HEPTANAL], the mortality at 2000 µg/mL in assay [6] was 40.8%.
In the case of `OCCCc1ccccc1` [HYDROCINNAMYL ALCOHOL], in assay [6], the mortality at 2000 µg/mL turned out to be 17.2%.
For `CCCCCCCCC=O` [NONANAL], in assay [1], the mortality at 200 µg/mL turned out to be 1.1%. The mortality at 600 µg/mL in assay [2] was 59.5%. Besides, the mortality at 400 µg/mL in assay [3] is 3.6%. The mortality at 800 µg/mL in assay [4] is 83.4%. The mortality at 1000 µg/mL in assay [5] came to 95.8%. In assay [6], the mortality at 2000 µg/mL came out at 100%.
For the compound `CCCCCCCCC` [NONANE], the mortality at 2000 µg/mL in assay [6] stood at 1.7%.
On the same count and under the same terms, under `C=C/C(C)=C/CC=C(C)C` [OCIMENE] stands 16.2%.
Turning to `CCCCCCCC=O` [OCTANAL], the mortality at 200 µg/mL in assay [1] was 3.5%. Further, in assay [2], the mortality at 600 µg/mL is 55.2%. Besides, the mortality at 400 µg/mL in assay [3] was 31.2%. The mortality at 800 µg/mL in assay [4] is 79.3%. Also, in assay [5], the mortality at 1000 µg/mL was 89%. For the same compound, the mortality at 2000 µg/mL in assay [6] stood at 100%.
Turning to `CC(O)c1ccccc1` (stereo not given) [PHENYL ETHANOL], the mortality at 2000 µg/mL in assay [6] turned out to be 3%.
On to `C=Cc1ccccc1` [STYRENE], for which, in assay [6], the mortality at 2000 µg/mL came to 6.7%.
Still for that read-out and setting: under `C/C=C/c1cc(OC)c(OC)cc1OC` [TRANS-ASARONE] stands 12.1%.
Regarding `CCCCCCCCCCC=O` [UNDECANAL], the mortality at 200 µg/mL in assay [1] worked out at 17.8%. Also, the mortality at 600 µg/mL in assay [2] worked out at 64.1%. Further, in assay [3], the mortality at 400 µg/mL came out at 34.1%. Besides, the mortality at 800 µg/mL in assay [4] was determined as 90.5%. Besides, the mortality at 1000 µg/mL in assay [5] is 98.7%. Besides, the mortality at 2000 µg/mL in assay [6] was found to be 100%.
